Like-named read-outs stand apart in the source and are kept apart here.
Experiments:
[1] = Pharmacokinetics of TET in blood after a single i.v. administration in normal and LPS-induced ALI mice; settings: male, BALB/c, mouse, in vivo, 5 mg/kg; for AUC(0-inf) / AUC(0-t) / C0 / half-life / clearance / MRT last / Vd: iv, 5 mg/kg i.v., blood; for clearance: read-out: CL (in vivo CLblood) (converted); for MRT last: read-out: MRT(0-t)
Source text: Twelve male BALB/c mice were randomly divided into two groups (n = 6 for each group). […]

[2] = In vitro experiments for fup, fu,mic and Rb/p used in the well-stirred model; assay type: in vitro ADME
Procedure: (3) CLint,scaled=CLint,app×45mg microsomes/g liver×g liver/kg body weight (4) CLh,blood=Q×fu,p/Rb/p×CLint/fu,mic/Q+CLint·fu,p/Rb·CLint/fu,mic

MDR1 (P-gp) = MDR1 (P-gp) (Homo sapiens, UniProt P08183); assay: in vitro
Procedure: MDR1 expressing LLC-PK1 cells or MOCK LLC-PK1 cells were utilized to identify whether P-gp is involved in the efflux transport across the membrane barrier. Cells were cultured as described above. Cells were seeded at a density of 2 × 10^4 in Millicell® 24-well cell culture plates with a 6.5 mm insert (0.4 µm polycarbonate membrane) from Corning (Kennebunk, ME, USA) 7 days before the experiments. On the day of the experiment, transepithelial electrical resistance (TEER) was measured to assess monolayer integrity. After washing the cells twice with HBSS, transport experiments in either the apical-to-basolateral direction (A-B) or the basolateral-to-apical direction (B-A) were conducted. […] After incubating the plates at 37 °C for 2 h, samples from the receiving and donor wells (50 μL) were taken simultaneously. All the samples were stored at −40 °C for LC-MS/MS analysis.
In the bidirectional transport study in LLC-PK1 cells, the following equations were used to calculate Papp values and the MDR1 efflux ratio.

MDR1 (P-gp), sequence (P08183 whole entry): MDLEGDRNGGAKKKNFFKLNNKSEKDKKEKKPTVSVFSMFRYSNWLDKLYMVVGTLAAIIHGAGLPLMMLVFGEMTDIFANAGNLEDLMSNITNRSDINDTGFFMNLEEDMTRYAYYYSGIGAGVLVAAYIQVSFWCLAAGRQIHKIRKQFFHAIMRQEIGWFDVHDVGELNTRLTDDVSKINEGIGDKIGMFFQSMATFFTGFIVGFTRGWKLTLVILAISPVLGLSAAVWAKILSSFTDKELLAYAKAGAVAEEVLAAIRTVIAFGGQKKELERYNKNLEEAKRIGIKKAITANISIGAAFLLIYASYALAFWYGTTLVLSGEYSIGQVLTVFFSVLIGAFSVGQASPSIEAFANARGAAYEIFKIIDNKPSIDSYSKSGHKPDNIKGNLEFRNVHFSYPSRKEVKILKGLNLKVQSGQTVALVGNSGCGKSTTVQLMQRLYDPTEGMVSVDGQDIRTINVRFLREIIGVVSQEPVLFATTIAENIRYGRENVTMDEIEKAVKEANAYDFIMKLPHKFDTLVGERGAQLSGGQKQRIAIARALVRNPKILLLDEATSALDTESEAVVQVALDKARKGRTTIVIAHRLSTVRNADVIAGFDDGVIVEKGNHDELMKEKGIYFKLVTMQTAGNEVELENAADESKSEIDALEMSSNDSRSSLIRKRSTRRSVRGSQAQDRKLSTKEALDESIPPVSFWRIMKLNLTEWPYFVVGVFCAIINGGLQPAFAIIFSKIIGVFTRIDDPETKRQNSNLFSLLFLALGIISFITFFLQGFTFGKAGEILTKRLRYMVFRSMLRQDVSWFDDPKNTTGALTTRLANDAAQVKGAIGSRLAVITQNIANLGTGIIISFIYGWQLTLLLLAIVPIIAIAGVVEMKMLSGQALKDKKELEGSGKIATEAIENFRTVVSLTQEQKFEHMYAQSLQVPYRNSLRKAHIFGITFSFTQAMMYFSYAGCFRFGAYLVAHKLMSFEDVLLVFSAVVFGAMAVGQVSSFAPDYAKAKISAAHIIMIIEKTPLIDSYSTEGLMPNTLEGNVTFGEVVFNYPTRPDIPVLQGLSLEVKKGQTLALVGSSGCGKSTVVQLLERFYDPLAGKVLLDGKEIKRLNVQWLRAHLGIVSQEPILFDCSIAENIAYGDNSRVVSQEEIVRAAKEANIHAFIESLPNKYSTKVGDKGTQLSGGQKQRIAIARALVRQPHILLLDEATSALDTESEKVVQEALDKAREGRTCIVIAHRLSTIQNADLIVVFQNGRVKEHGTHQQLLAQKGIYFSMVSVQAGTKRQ

COc1ccc2cc1Oc1ccc(cc1)C[C@H]1c3cc(c(OC)cc3CCN1C)Oc1c(OC)c(OC)cc3c1[C@H](C2)N(C)CC3 [TET, Tetrandrine]
increased Vz, LPS-treated vs normal mice [1]: ~ 134% | AUC(0-inf) ([1]; LPS-treated mice): 65700 ± 17500 ng·h/mL | AUC(0-t) ([1]; LPS-treated mice): 44100 ± 8460 ng·h/mL | C0 ([1]; LPS-treated mice): 2300 ± 935 ng/mL | half-life ([1]; LPS-treated mice): 93.2 ± 26.4 h | clearance ([1]; LPS-treated mice): 1.35 mL/min/kg | MRT last ([1]; LPS-treated mice): 137 ± 40.4 h | Vd ([1]; LPS-treated mice, read-out: Vss): 10.5 ± 1.77 L/kg | Vd ([1]; LPS-treated mice, read-out: Vz): 10.3 ± 1.75 L/kg | AUC(0-inf) ([1]; normal mice): 29500 ± 3790 ng·h/mL | AUC(0-t) ([1]; normal mice): 26300 ± 3420 ng·h/mL | C0 ([1]; normal mice): 2270 ± 270 ng/mL | half-life ([1]; normal mice): 30.7 ± 5.21 h | clearance ([1]; normal mice): 2.87 mL/min/kg | MRT last ([1]; normal mice): 72.7 ± 6.4 h | Vd ([1]; normal mice, read-out: Vss): 7.71 ± 2.01 L/kg | Vd ([1]; normal mice, read-out: Vz): 12.5 ± 1.63 L/kg | Rb/p [2]: 2.39 | fup [2]: 0.01 | fraction unbound ([2]; obtained from in vitro experiments): 0.18 | Papp A→B at 2 h (MDR1 (P-gp)): 0.52 ± 0.19 ×10⁻⁶ cm/s | Papp B→A at 2 h (MDR1 (P-gp); human, LLC-PK1): 14 ± 2.95 ×10⁻⁶ cm/s | efflux ratio at 2 h (MDR1 (P-gp); human, LLC-PK1): 32.5
